Where two headings read alike, the source gives them in different places.
How the values were obtained:
[1] = Plasma ibrutinib level by HPLC after oral gavage; set-up: species or system mice; settings: mouse, in vivo
Protocol: FIG. 16A-FIG. 16B. Examples of representative HPLC data. Plasma ibrutinib levels were measured by HPLC 3 hours after mice were treated by oral gavage with an equal amount of free ibrutinib and LCFA-ibrutinib. The ibrutinib peaks are indicated with arrows. There was a 3-fold increase in plasma ibrutinib level in mice treated with LCFA-ibrutinib (B) compared with those treated with free ibrutinib (A) based on the measurements of the area under the curve (AUC).
LCFA-conjugated ibrutinib was synthesized and characterized (FIG. 15A-FIG. 15C). To compare drug uptake between free ibrutinib and LCFA-ibrutinib, mice were treated with an equal amount of free ibrutinib or LCFA-ibrutinib. Blood samples were collected at different time points, and analyzed for ibrutinib content by HPLC. Area under the curve (AUC) of ibrutinib was calculated to evaluate plasma drug concentration (FIG. 16A-FIG. 16B).

[2] = cited from earlier work
[3] = tested on: Caco-2 cells; assay: Uptake of fatty acid-Ex4 conjugate by Caco-2 cells; format: cell-based, human; settings: Alexa594-labeled conjugates; incubation for one hour
Protocol: FIG. 10. Examples of representative results of Caco-2 cell uptake. The fatty acid-conjugated Ex4 molecules were incubated with Alexa594 (fluorescent dye)-labeled Ex4-Lys^27-LCFA having 12, 16 and 18 carbon fatty acids (C12, C16, C18, respectively) and Ex4-Lys^27-SCFA (short chain fatty acid having 8 carbons, shown as C8) and were taken up by the cells. Levels of uptake were determined based on fluorescent intensity (MFI) inside the cells.
Coco-2 cells were seeded in cell culture plates. Cells were incubated with either fluorescently labeled Ex4-Lys^27-SCFA (C8) or one of the fluorescently labeled Ex4-Lys^27-LCFA having a C12, C16 and C18 LCFA. After incubation for one hour, cells were washed with PBS to remove fatty acid-conjugated Ex4. A plate reader was applied to measure fluorescent intensity in each well in the cell culture plate, and the results were compared (FIG. 10).

[4] = Intraperitoneal glucose tolerance test, Ex4-Lys^27-LCFA in acid-neutralized mice; format: in vivo, male C57BL/6 mice
Protocol: FIG. 11. […] Each mouse was treated orally with 100 μL 1M NaHCO3 to neutralize acid in the gastric fluid. […] The mice were then challenged with intraperitoneal injection of 2 g/kg glucose 1 hour after treatment.
(§1) Intraperitoneal glucose tolerance test (GTT) was performed in male C57BL/6 mice. Briefly, 6 to 12-week-old male C57BL/6 mice were fasted overnight and treated by oral gavage with 100 μL 1M NaHCO3 to neutralize acid in the gastric fluid. One minute later, the mice were treated with PBS, 100 μg Ex4, or 100 μg Ex4-Lys^27-LCFA by oral gavage, respectively. All mice were then treated with 2 g/kg glucose by intraperitoneal injection 1 hour later. Blood samples were collected to measure blood glucose levels. Area under the curve (AUC) of blood glucose was calculated to evaluate hypoglycemic response to each treatment (FIG. 11).

[5] = Intraperitoneal glucose tolerance test, GLP-1-Lys^26-LCFA in acid-neutralized mice; format: in vivo, male C57BL/6 mice
Protocol: FIG. 12. Additional examples of representative glucose tolerance assay results. Glucose tolerance assays were performed after treatment with free GLP-1 analogue or GLP-1-Lys^26-LCFA. Each mouse was treated orally with 100 μL 1M NaHCO3 to neutralize acid in the gastric fluid as described before. After 1 minute, the mice were treated p.o. with PBS, 100 μg free GLP-1 analogue (GLP-1), or 100 μg GLP-1-Lys^26-LCFA. The mice were then challenged with intraperitoneal injection of 2 g/kg glucose 1 hour after treatment.
as §1, with “GTT” for “glucose tolerance test (GTT)”, “treated” for “treated by oral gavage”, “GLP-1 analogue,” for “Ex4,”, “GLP-1-Lys^26-LCFA” for “Ex4-Lys^27-LCFA”, “12).” for “11).”

[6] = tested on: c-Myc; assay: Knockdown of c-Myc expression in Caco-2 cells (Western blot); format: cell-based, human; settings: 200 nM, without transfection reagent, 3 days
Protocol: FIG. 18. Examples of representative measurement data of protein expression. Western blot was performed to measure the suppression of c-Myc expression by LCFA-conjugated miR-34a mimic 3 days after Caco-2 cells were treated. c-Myc is a known target of miR-34a. Its expression level was detected both after a short exposure (short expo) and a relatively long exposure (long expo).
Caco-2 cells were seeded in 6-well cell culture plates, and treated (without any transfection reagent) with 200 nM free scramble siRNA (Scr), 200 nM free miR-34a mimic (miR-34a), or 200 nM LCFA-conjugated miR-34a (FA-miR-34a), respectively. Cells were harvested 3 days later, and lysed to prepare protein samples. Equal amount of protein samples was loaded in 10% SDS-polyacrylamide gels for Western blot analysis. The c-Myc protein was detected with an anti-c-Myc antibody. c-Myc expression levels were detected after both a short-time exposure (short expo) and relatively long-time exposure (long expo). β-Actin was served as an expression control (FIG. 18).

[7] = in human; co-formulated with SNAC; cited from earlier work
[8] = 100 μg p.o. after 100 μL 1M NaHCO3, 2 g/kg glucose i.p. 1 hour after treatment, 15 minutes after challenge
[9] = 100 μg p.o. after NaHCO3, 2 g/kg glucose i.p. 1 hour later

C=CC(=O)N1CCCC(n2nc(-c3ccc(Oc4ccccc4)cc3)c3c(NC(=O)CCCCCCCCCCCCCCCCC(=O)O)ncnc32)C1 (centres unmarked) [LCFA-ibrutinib]
Area under the curve (AUC) of ibrutinib in plasma (HPLC) [1]: 6.428 | increase in plasma ibrutinib level compared with free ibrutinib (based on AUC) ([1]; 3 h): 3 fold

C=CC(=O)N1CCC[C@@H](n2nc(-c3ccc(Oc4ccccc4)cc3)c3c(N)ncnc32)C1 [ibrutinib]
oral bioavailability ([2]; fasting state): 3.9% | oral bioavailability ([2]; fed state): 8.4%

Ex4-Lys^27-LCFA: conjugated long-chain fatty acid and exendin-4 through lysine residue 27; C12, C16 and C18 dicarboxylic acids used
levels of uptake by Caco-2 cells (fluorescent intensity, MFI) [3]: high uptake | blood glucose level after glucose challenge [4, 8]: mild increase in blood glucose level | controlling blood glucose level after gavage in the acid-neutralized GI track [4, 9]: effective in controlling blood glucose level

free GLP-1: GLP-1 analogue with AIB at position 8 (SEQ ID. 2), unconjugated
blood glucose level after glucose challenge [5, 8]: high blood glucose levels | controlling blood glucose level after gavage in the acid-neutralized GI track [5, 9]: not

miR-34a: free microRNA-34a mimic duplex (SEQ ID. 3 and 4), unconjugated control (chain 1 UGGCAGUGUCUUAGCUGGUUGUTT; chain 2 ACAACCAGCUAAGACACUGCCATT; sense strand nucleotides 20 and 21 methylated, type of methylation not given here)
suppression of c-Myc expression [6]: not

semaglutide
oral bioavailability [7]: barely detectable
